Assay results published in patent publication US10072011B2, “Substituted bridged urea analogs as sirtuin modulators” (GlaxoSmithKline Intellectual Property (No.2) Limited, priority 2014, dated 2018).
Where two headings read alike, the source gives them in different places.

Biological target: T1, SIRT1 (Homo sapiens, UniProt Q96EB6)
T1 sequence (Q96EB6 1-747): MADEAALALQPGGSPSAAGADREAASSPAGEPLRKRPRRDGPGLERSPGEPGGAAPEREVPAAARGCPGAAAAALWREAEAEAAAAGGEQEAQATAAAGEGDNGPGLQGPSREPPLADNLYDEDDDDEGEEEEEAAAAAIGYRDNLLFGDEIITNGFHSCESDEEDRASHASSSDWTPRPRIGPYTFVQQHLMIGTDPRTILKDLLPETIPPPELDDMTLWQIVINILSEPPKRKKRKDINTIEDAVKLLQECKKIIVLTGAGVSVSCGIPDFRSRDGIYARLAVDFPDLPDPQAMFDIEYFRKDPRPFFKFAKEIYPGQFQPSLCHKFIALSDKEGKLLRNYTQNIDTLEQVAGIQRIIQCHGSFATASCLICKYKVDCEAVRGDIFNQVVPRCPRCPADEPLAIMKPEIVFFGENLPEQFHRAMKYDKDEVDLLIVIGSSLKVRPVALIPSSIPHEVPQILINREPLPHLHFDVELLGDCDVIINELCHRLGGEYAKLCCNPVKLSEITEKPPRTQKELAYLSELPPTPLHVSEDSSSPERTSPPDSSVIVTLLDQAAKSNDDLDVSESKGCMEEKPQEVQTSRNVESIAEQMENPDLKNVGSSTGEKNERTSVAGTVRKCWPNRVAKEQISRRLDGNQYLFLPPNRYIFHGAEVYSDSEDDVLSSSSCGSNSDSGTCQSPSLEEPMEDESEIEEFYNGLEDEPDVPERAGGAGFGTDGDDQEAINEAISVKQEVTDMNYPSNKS
Test: Trp mass spectrometry assay of SIRT1 activation (Ac-R-H-K-K(Ac)-W-NH2 peptide)
Format: biochemical
Conditions: for Emax: 25 min, read-out: TRP MAX RESP (percent maximum fold activation)
Procedure: The Trp mass spectrometry assay was conducted as follows. […] The SIRT1 protein was obtained by cloning the SirT1 gene into a T7-promoter containing vector, which was then expressed in BL21(DE3) bacterial cells and purified as described in further detail below. Test compound was added at varying concentrations to this reaction mixture and the resulting reactions were monitored. After the 25 minute incubation with SIRT1, 10 μL of 10% formic acid was added to stop the reaction. The resulting reactions were sealed and frozen for later mass spec analysis. The relative SIRT1 activity was then determined by measuring the amount of O-acetyl-ADP-ribose (OAADPR) formed (or, alternatively, the amount of deacetylated Trp peptide generated) by the NAD-dependent sirtuin deacetylation reaction in the presence of varying concentrations of the test compound versus control reactions lacking the test compound. The degree to which the test agent activated deacetylation by SIRT1 was expressed as EC1.5 (i.e., the concentration of compound required to increase SIRT1 activity by 50% over the control lacking test compound), and Percent Maximum Activation (i.e., the maximum activity relative to control (100%) obtained for the test compound).
This time point was the same as that used for test compounds and, within the linear range, the endpoint represents a change in velocity.
For the above assay, SIRT1 protein was expressed and purified as follows. The SirT1 gene was cloned into a T7-promoter containing vector and transformed into BL21(DE3). The protein was expressed by induction with 1 mM IPTG as an N-terminal His-tag fusion protein at 18° C. overnight and harvested at 30,000×g. Cells were lysed with lysozyme in lysis buffer (50 mM Tris-HCl, 2 mM Tris[2-carboxyethyl]phosphine (TCEP), 10 μM ZnCl2, 200 mM NaCl) and further treated with sonication for 10 min for complete lysis. The protein was purified over a Ni-NTA column (Amersham) and fractions containing pure protein were pooled, concentrated and run over a sizing column (Sephadex S200 26/60 global). The peak containing soluble protein was collected and run on an Ion-exchange column (MonoQ). Gradient elution (200 mM-500 mM NaCl) yielded pure protein. This protein was concentrated and dialyzed against dialysis buffer (20 mM Tris-HCl, 2 mM TCEP) overnight. The protein was aliquoted and frozen at −80° C. until further use.
“NT” means not tested; “ND” means not determinable.

[1] = Trp peptide 0.5 μM, 120 μM βNAD+, 10 nM SIRT1, 25 min at 25° C., relative to control (100%)
[2] = Trp peptide 0.5 μM, 120 μM βNAD+, 10 nM SIRT1, 25 min at 25° C.

| Structure (SMILES) | Emax [1] [%] | TRP Activity (EC1.5, concentration of test compound that results in 150% activation of SIRT1) [2] | Emax [%] |
| --- | --- | --- | --- |
| O=C(NC(CO)C(F)(F)F)c1ccc2c(n1)N(C(=O)Nc1ccccn1)[C@H]1CCN2C1 (stereo partly drawn) [Example 8, (4S)—N-5-(pyridin-2-yl)-N-7-(1,1,1-trifluoro-3-hydroxypropan-2-yl)-3,4-dihydro-1,4-methanopyrido[2,3-b][1,4]diazepine-5,7(2H)-dicarboxamide] | > 150 | A (EC1.5<1 μM) |  |
| COCC(NC(=O)c1ccc2c(n1)N(C(=O)Nc1ccccn1)[C@H]1CCN2C1)C(F)(F)F (stereo partly drawn) [Example 9, (4S)—N-5-(pyridin-2-yl)-N-7-(1,1,1-trifluoro-3-methoxypropan-2-yl)-3,4-dihydro-1,4-methanopyrido[2,3-b][1,4]diazepine-5,7(2H)-dicarboxamide] | > 150 | A (EC1.5<1 μM) |  |
| CC(CO)NC(=O)c1ccc2c(n1)N(C(=O)Nc1ccccn1)[C@H]1CCN2C1 (stereo partly drawn) [Example 10, (4S)—N-7-(1-hydroxypropan-2-yl)-N-5-(pyridin-2-yl)-3,4-dihydro-1,4-methanopyrido [2,3-b] [1, 4] diazepine-5, 7(2H)-dicarboxamide] | > 150 | B (EC1.5 1-25 μM) |  |
| COCC(C)NC(=O)c1ccc2c(n1)N(C(=O)Nc1ccccn1)[C@H]1CCN2C1 (stereo partly drawn) [Example 11, (4S)—N-7-(1-methoxypropan-2-yl)-N-5-(pyridin-2-yl)-3,4-dihydro-1,4-methanopyrido [2,3-b] [1, 4] diazepine-5, 7(2H)-dicarboxamide] | > 150 | B (EC1.5 1-25 μM) |  |
| COC(=O)CNC(=O)c1ccc2c(n1)N(C(=O)Nc1ccccn1)[C@H]1CCN2C1 [Example 12] | > 150 | B (EC1.5 1-25 μM) |  |
| O=C(NCCO)c1ccc2c(n1)N(C(=O)Nc1ccccn1)[C@H]1CCN2C1 [Example 13, (4S)—N-7-(2-hydroxyethyl)-N-5-(pyridin-2-yl)-3,4-dihydro-1,4-methanopyrido [2,3-b] [1, 4] diazepine-5, 7(2H)-dicarboxamide] | > 150 |  |  |
| O=C(O)CNC(=O)c1ccc2c(n1)N(C(=O)Nc1ccccn1)[C@H]1CCN2C1 [Example 14, 2-((4S)-5-(pyridin-2-ylcarbamoyl)-2,3,4,5-tetrahydro-1,4 methanopyrido[2,3-b][1,4]diazepine-7-carboxamido)acetic acid] | < 150 | C (EC1.5>25 μM) |  |
| CC(C)(C)CNC(=O)c1ccc2c(n1)N(C(=O)Nc1ccccn1)[C@H]1CCN2C1 [Example 15, (4S)—N-7-neopentyl-N-5-(pyridin-2-yl)-3,4-dihydro-1,4-methanopyrido[2,3-b][1,4]diazepine-5,7(2H)-dicarboxamide] | > 150 | A (EC1.5<1 μM) |  |
| O=C(N[C@H](CO)C(F)(F)F)c1ccc2c(n1)N(C(=O)Nc1ccccn1)[C@H]1CCN2C1 [Example 16, (4S)—N5-(pyridin-2-yl)-N7-((R)-1,1,1-trifluoro-3-hydroxypropan-2-yl)-3,4-dihydro-1,4-methanopyrido[2,3-b][1,4]diazepine-5,7(2H)-dicarboxamide] | > 150 | A (EC1.5<1 μM) |  |
| O=C(NC1(CO)CC1)c1ccc2c(n1)N(C(=O)Nc1ccccn1)[C@H]1CCN2C1 [Example 17, (4S)—N7-(1-(hydroxymethyl)cyclopropyl)-N5-(pyridin-2-yl)-3,4-dihydro-1,4-methanopyrido[2,3-b][1,4]diazepine-5,7(2H)-dicarboxamide] | > 150 | B (EC1.5 1-25 μM) |  |
| C[C@@H](NC(=O)c1ccc2c(n1)N(C(=O)Nc1ccccn1)[C@H]1CCN2C1)C(F)(F)F [Example 19, (4S)—N5-(pyridin-2-yl)-N7-((R)-1,1,1-trifluoropropan-2-yl)-3,4-dihydro-1,4-methanopyrido[2,3-b][1,4]diazepine-5,7(2H)-dicarboxamide] | > 150 | A (EC1.5<1 μM) |  |
| O=C(NC1CC1(F)F)c1ccc2c(n1)N(C(=O)Nc1ccccn1)[C@H]1CCN2C1 (stereo partly drawn) [Example 20, (4S)—N7-(2,2-difluorocyclopropyl)-N5-(pyridin-2-yl)-3,4-dihydro-1,4-methanopyrido[2,3-b][1,4]diazepine-5,7(2H)-dicarboxamide] | > 150 | A (EC1.5<1 μM) |  |
| Cc1ccnc(NC(=O)N2c3nc(C(=O)NC4CC4)ccc3N3CC[C@H]2C3)c1 [Example 22, (4S)—N7-cyclopropyl-N5-(4-methylpyridin-2-yl)-3,4-dihydro-1,4-methanopyrido[2,3-b][1,4]diazepine-5,7(2H)-dicarboxamide] | > 150 | B (EC1.5 1-25 μM) |  |
| Cn1cccc(NC(=O)N2c3nc(C(=O)NCC(F)(F)F)ccc3N3CC[C@H]2C3)c1=O [Example 23, (4S)—N5-(1-methyl-2-oxo-1,2-dihydropyridin-3-yl)-N7-(2,2,2-trifluoroethyl)-3,4-dihydro-1,4-methanopyrido[2,3-b][1,4]diazepine-5,7(2H)-dicarboxamide] | > 150 | A (EC1.5<1 μM) |  |
| O=C(NC1CC1)c1ccc2c(n1)N(C(=O)Nc1cc(OC[C@H](O)CO)ccn1)[C@H]1CCN2C1 [Example 24, (4S)—N7-cyclopropyl-N5-(4-((R)-2,3-dihydroxypropoxy)pyridin-2-yl)-3,4-dihydro-1,4-methanopyrido[2,3-b][1,4]diazepine-5,7(2H)-dicarboxamide] | > 150 | B (EC1.5 1-25 μM) |  |
| Cc1nc(NC(=O)N2c3nc(C(=O)N[C@H](C)C(F)(F)F)ccc3N3CC[C@H]2C3)co1 [Example 25, (4S)—N5-(2-methyloxazol-4-yl)-N7-((R)-1,1,1-trifluoropropan-2-yl)-3,4-dihydro-1,4-methanopyrido[2,3-b][1,4]diazepine-5,7(2H)-dicarboxamide] | > 150 | A (EC1.5<1 μM) |  |
| CC[C@H](C)NC(=O)c1ccc2c(n1)N(C(=O)Nc1ccccn1)[C@H]1CCN2C1 [Example 26, (4S)—N7-((S)-sec-butyl)-N5-(pyridin-2-yl)-3,4-dihydro-1,4-methanopyrido[2,3-b][1,4]diazepine-5,7(2H)-dicarboxamide] | > 150 | A (EC1.5<1 μM) |  |
| O=C(NC1CCCCC1)c1ccc2c(n1)N(C(=O)Nc1ccccn1)[C@H]1CCN2C1 [Example 27, (4S)—N7-cyclohexyl-N5-(pyridin-2-yl)-3,4-dihydro-1,4-methanopyrido[2,3-b][1,4]diazepine-5,7(2H)-dicarboxamide] |  | A (EC1.5<1 μM) | > 150 |
| O=C(NCC1(CO)CC1)c1ccc2c(n1)N(C(=O)Nc1ccccn1)[C@H]1CCN2C1 [Example 28, (4S)—N7-((1-(hydroxymethyl)cyclopropyl)methyl)-N5-(pyridin-2-yl)-3,4-dihydro-1,4-methanopyrido[2,3-b][1,4]diazepine-5,7(2H)-dicarboxamide] | > 150 | B (EC1.5 1-25 μM) |  |
